Assay results taken from ChEMBL document CHEMBL1201862, “PubChem BioAssay data set” (2004).
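Method: 48-hour compound exposure of cells in 96-well plates, five concentrations, linear interpolation of endpoints. At the GI50, growth is halved.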 Calls of active or inactive are those of the source. Cut-off read from the data, not from the text of the source: active = GI50 up to about 1.1 µM and inactive = higher.

Legend:
Test in all cases: growth of human tumour cells (NCI), 48 h
786-0 = test system: 786-0
A498 = test system: A498
A549 = test system: A549
ACHN = test system: ACHN
CAKI-1 = test system: CAKI-1
CCRF-CEM = test system: CCRF-CEM
COLO 205 = test system: COLO 205
DLD-1 = test system: DLD-1
DMS-114 = test system: DMS-114
DMS-273 = test system: DMS-273
EKVX = test system: EKVX
HCC 2998 = test system: HCC 2998
HCT-116 = test system: HCT-116
HCT-15 = test system: HCT-15
HL-60 = test system: HL-60
HOP-62 = test system: HOP-62
HOP-92 = test system: HOP-92
HT-29 = test system: HT-29
IGROV-1 = test system: IGROV-1
K562 = test system: K562
KM-20L2 = test system: KM-20L2
KM12 = test system: KM12
LXFL 529 = test system: LXFL 529
M14 = test system: M14
M19-MEL = test system: M19-MEL
MOLT-4 = test system: MOLT-4
Malme-3M = test system: Malme-3M
NCI-H226 = test system: NCI-H226
NCI-H23 = test system: NCI-H23
NCI-H460 = test system: NCI-H460
NCI-H522 = test system: NCI-H522
OVCAR-3 = test system: OVCAR-3
OVCAR-4 = test system: OVCAR-4
OVCAR-5 = test system: OVCAR-5
OVCAR-8 = test system: OVCAR-8
RPMI-8226 = test system: RPMI-8226
SF-268 = test system: SF-268
SF-295 = test system: SF-295
SF-539 = test system: SF-539
SK-MEL-28 = test system: SK-MEL-28
SK-MEL-2 = test system: SK-MEL-2
SK-MEL-5 = test system: SK-MEL-5
SK-OV-3 = test system: SK-OV-3
SN12C = test system: SN12C
SNB-19 = test system: SNB-19
SNB-75 = test system: SNB-75
SW-620 = test system: SW-620
TK-10 = test system: TK-10
U-251 = test system: U-251
UACC-257 = test system: UACC-257
UACC-62 = test system: UACC-62
UO-31 = test system: UO-31
XF498 = test system: XF498
BT-549 = test system: BT-549
DU-145 = test system: DU-145
Hs-578T = test system: Hs-578T
MDA-MB-231 = test system: MDA-MB-231
MDA-MB-435 = test system: MDA-MB-435
MDA-N = test system: MDA-N
PC-3 = test system: PC-3
SR = test system: SR
T47D = test system: T47D
HOP-18 = test system: HOP-18

Compound: O=C1C2=C(c3ccccc31)C(c1ccc(F)cc1)N1C(=O)CCSC1=N2 (stereo unspecified)
- GI50 (786-0): > 100 µM (inactive)
- GI50 (A498): > 100 µM (inactive)
- GI50 (A549): > 100 µM (inactive)
- GI50 (ACHN): > 100 µM (inactive)
- GI50 (CAKI-1): 69 µM (inactive)
- GI50 (CCRF-CEM): 89.5 µM (inactive)
- GI50 (COLO 205): > 100 µM (inactive)
- GI50 (DLD-1): > 100 µM (inactive)
- GI50 (DMS-114): 71.6 µM (inactive)
- GI50 (DMS-273): > 100 µM (inactive)
- GI50 (EKVX): > 100 µM (inactive)
- GI50 (HCC 2998): > 100 µM (inactive)
- GI50 (HCT-116): 95.7 µM (inactive)
- GI50 (HCT-15): 98.4 µM
- GI50 (HL-60): 65.6 µM (inactive)
- GI50 (HOP-62): > 100 µM (inactive)
- GI50 (HOP-92): 24.7 µM (inactive)
- GI50 (HT-29): > 100 µM (inactive)
- GI50 (IGROV-1): > 100 µM (inactive)
- GI50 (K562): > 100 µM (inactive)
- GI50 (KM-20L2): > 100 µM (inactive)
- GI50 (KM12): 55.1 µM (inactive)
- GI50 (LXFL 529): 45.4 µM (inactive)
- GI50 (M14): > 100 µM (inactive)
- GI50 (M19-MEL): > 100 µM (inactive)
- GI50 (MOLT-4): 64.6 µM (inactive)
- GI50 (Malme-3M): > 100 µM (inactive)
- GI50 (NCI-H226): 93.3 µM (inactive)
- GI50 (NCI-H23): > 100 µM (inactive)
- GI50 (NCI-H460): > 100 µM (inactive)
- GI50 (NCI-H522): 72.8 µM (inactive)
- GI50 (OVCAR-3): > 100 µM (inactive)
- GI50 (OVCAR-4): 56 µM (inactive)
- GI50 (OVCAR-5): > 100 µM (inactive)
- GI50 (OVCAR-8): > 100 µM (inactive)
- GI50 (RPMI-8226): 49.2 µM (inactive)
- GI50 (SF-268): > 100 µM (inactive)
- GI50 (SF-295): > 100 µM (inactive)
- GI50 (SF-539): > 100 µM (inactive)
- GI50 (SK-MEL-28): > 100 µM (inactive)
- GI50 (SK-MEL-2): > 100 µM (inactive)
- GI50 (SK-MEL-5): 60.5 µM (inactive)
- GI50 (SK-OV-3): > 100 µM (inactive)
- GI50 (SN12C): 42.9 µM (inactive)
- GI50 (SNB-19): > 100 µM (inactive)
- GI50 (SNB-75): 24.4 µM (inactive)
- GI50 (SW-620): > 100 µM (inactive)
- GI50 (TK-10): > 100 µM (inactive)
- GI50 (U-251): > 100 µM (inactive)
- GI50 (UACC-257): > 100 µM (inactive)
- GI50 (UACC-62): 62.1 µM (inactive)
- GI50 (UO-31): 39.9 µM (inactive)
- GI50 (XF498): > 100 µM (inactive)

Compound: CCC/C=C/C=C/C(=O)OC1/C(=C/C(=O)OC)CC2CC(C(C)O)OC(=O)CC(O)CC3CC(OC(C)=O)C(C)(C)C(O)(CC4C/C(=C/C(=O)OC)CC(/C=C/C(C)(C)C1(O)O2)O4)O3 (stereo unspecified)
- GI50 (786-0): 6.25 µM (inactive)
- GI50 (A498): 4.18 µM (inactive)
- GI50 (ACHN): 3.34 µM (inactive)
- GI50 (BT-549): 8.57 µM (inactive)
- GI50 (DLD-1): > 10.9 µM (inactive)
- GI50 (DMS-273): 10.6 µM (inactive)
- GI50 (DU-145): > 12.5 µM (inactive)
- GI50 (Hs-578T): 6.07 µM (inactive)
- GI50 (M14): > 11 µM (inactive)
- GI50 (MDA-MB-231): 6.22 µM (inactive)
- GI50 (MDA-MB-435): 8.47 µM (inactive)
- GI50 (MDA-N): 7.53 µM (inactive)
- GI50 (NCI-H226): > 12.5 µM (inactive)
- GI50 (NCI-H23): 9.89 µM (inactive)
- GI50 (NCI-H522): > 12.5 µM (inactive)
- GI50 (OVCAR-5): > 12.5 µM (inactive)
- GI50 (PC-3): 5.32 µM (inactive)
- GI50 (RPMI-8226): 9.98 µM (inactive)
- GI50 (SF-268): 6.95 µM (inactive)
- GI50 (SF-539): > 12.5 µM (inactive)
- GI50 (SK-MEL-28): 9.98 µM (inactive)
- GI50 (SNB-19): > 12.5 µM (inactive)
- GI50 (SR): > 12.5 µM (inactive)
- GI50 (T47D): 7.01 µM (inactive)
- GI50 (TK-10): > 12.5 µM (inactive)
- GI50 (XF498): 3.62 µM (inactive)

Compound: CC(=O)Oc1cc(OC(C)=O)c2c(c1)OC(c1ccc(OC(C)=O)c(OC(C)=O)c1)CC2=O (stereo unspecified)
- GI50 (A549): 43.9 µM (inactive)
- GI50 (CCRF-CEM): 20.4 µM (inactive)
- GI50 (COLO 205): 63.1 µM (inactive)
- GI50 (DMS-273): 50.6 µM (inactive)
- GI50 (HCC 2998): > 100 µM (inactive)
- GI50 (HCT-116): 63.7 µM (inactive)
- GI50 (HL-60): 0.458 µM (active)
- GI50 (HOP-18): 30.1 µM (inactive)
- GI50 (HOP-92): 29.8 µM (inactive)
- GI50 (SF-295): 41.6 µM (inactive)
- GI50 (SK-MEL-5): 55.3 µM (inactive)
- GI50 (SK-OV-3): 71.9 µM (inactive)
- GI50 (SN12C): 0.0446 µM (active)
- GI50 (SR): 14.7 µM (inactive)
- GI50 (SW-620): 47.5 µM (inactive)
- GI50 (TK-10): 49.9 µM (inactive)
- GI50 (UO-31): 38.9 µM (inactive)
